The results in this text go back to US4045298A, “Antibiotic XK-62-2 and process for production thereof” (priority 1972, dated 1977).

In brackets after ≈: the same amount, converted by molar mass. Entries after “also recorded” stand apart in the source; their conditions may differ.

The test system of data set [1] is Bacillus subtilis No. 10707. In words: Activity (unit/mg) of isolated preparations; paper disk method using an agar plate. The format is cell-based. The method, then:
After the completion of fermentation, the culture liquor is adjusted to a pH of 2.0 with 12N sulfuric acid and stirred for 30 minutes. Then, about 10 kg of a filter aid, Radiolite No. 600 (product of Showa Kagaku Kogyo Co., Ltd., Japan) is added thereto and the microbial cells are removed by filtration. The filtrate is adjusted to a pH of 8.0 with 6N sodium hydroxide and passed through a column packed with about 50 l of a cation exchange resin, Amberlite IRC-50 (ammonia form). The active substance is adsorbed on the resin and the eluate is discarded. After washing the resin with water, the active substance is eluted out with 1N aqueous ammonia.
Active fractions are combined and concentrated in vacuo to about 5 l. The concentrate is then adjusted to a pH of 8.0 with 6N sulfuric acid and passed through a column packed with 1 l of an anion exchange resin, Dowex 1×2 (OH^- form). The column is washed with about 5 l of water and the effluent and the washings containing active substance are combined and are concentrated to 1/15 by volume. […] The resultant precipitate is removed by filtration and the filtrate is concentrated to 500 ml. The concentrate is adjusted to a pH of 4.5 with 6N sulfuric acid and 2.5 l of methanol is added thereto. […] The precipitate is separated by filtration and washed with methanol.
After the completion of fermentation, the culture liquor is adjusted to a pH of 2.0 with 12N sulfuric acid and stirred for 30 minutes. Then, about 10 kg of Radiolite No. 600 (trade name) is added thereto and the microbial cells are removed by filtration. The filtrate is adjusted to a pH of 8.0 with 6N sodium hydroxide and passed through a column packed with about 50 l of a cation exchange resin, Amberlite IRC-50 (ammonia form). The eluate is discarded. After washing the resin with water, the active substance is eluted out with 1N aqueous ammonia.

Data set [2] has as its system Proteus mirabilis No. 39. Description: Minimum inhibitory concentration by agar dilution method. The following applies: NO.39, read-out: Minimum inhibitory concentration. The format is cell-based. From the text: (§1) The comparative in vitro activities of these antibiotics against various microorganisms of the genus Proteus are shown in the following Table 6.
(§2) Minimum inhibitory concentration
(§3) (γ/ml : by agar dilution method)

For data set [3], the system named is Proteus morganii Jenkins. Described as above. The following applies: Morganella morganii, read-out: Minimum inhibitory concentration. In kind it is cell-based.
From the text: as §1, §2, §3

Data set [4] relates to Proteus mirabilis Finland 9. Described as above. The format is cell-based. The following applies: FINLAND9, read-out: Minimum inhibitory concentration.
From the text: as §1, §2, §3

Data set [5] deals with Proteus mirabilis No. 825. Described as above. In kind it is cell-based. The following applies: NO.825, read-out: Minimum inhibitory concentration.
From the text: as §1, §2, §3

Data set [6] deals with Proteus rettgeri Booth. Described as above. The format is cell-based. The following applies: Providencia rettgeri, read-out: Minimum inhibitory concentration.
From the text: as §1, §2, §3

The subject of data set [7] is Proteus rettgeri Hambrook. The description is as above. The format is cell-based. The following applies: Providencia rettgeri, read-out: Minimum inhibitory concentration.
From the text: as §1, §2, §3

Data set [8] concerns Proteus vulgaris Abbott JJ. The data set is described as above. The following applies: read-out: Minimum inhibitory concentration. The format is cell-based.
From the text: as §1, §2, §3

For data set [9], the system named is Proteus vulgaris ATCC 6897. The data set is described as above. The format is cell-based. The following applies: ATCC6897, read-out: Minimum inhibitory concentration.
From the text: Antibacterial spectra of XK-62-2 by agar
as §1, §2, §3

Data set [10] relates to specific enzyme system which inactivates gentamicin C1a or kanamycin by acetylating. In kind it is biochemical, Pseudomonas aeruginosa. The following applies: acetylating enzyme of KY 8510 and 8516 strains.
The subject of data set [11] is Pseudomonas aeruginosa KY 8520. In words: Minimum inhibitory concentration by agar dilution method. In kind it is cell-based. The following applies: KY8520, clinical isolate, Table 7.
From the text: as §2, §3

Data set [12] concerns Pseudomonas aeruginosa KY 8511. The description is as above. The following applies: KY8511, clinical isolate, Table 7. The format is cell-based.
From the text: as §2, §3

For data set [13], the system named is Pseudomonas aeruginosa KY 8515. The data set is described as above. The format is cell-based. The following applies: KY8515, clinical isolate, Table 7.
From the text: as §2, §3

Data set [14] relates to Pseudomonas aeruginosa KY 8516. Described as above. In kind it is cell-based. The following applies: Pseudomonas aeruginosa, KY8516; agar dilution; clinical isolate; Table 7.
From the text: as §2, §3

Data set [15] deals with Pseudomonas aeruginosa KY 8514. The description is as above. The format is cell-based. The following applies: KY8514, clinical isolate, Table 7.
From the text: as §2, §3

The subject of data set [16] is Pseudomonas aeruginosa KY 8562. The description is as above. The following applies: KY8562, clinical isolate, Table 7. The format is cell-based.
From the text: as §2, §3

Data set [17] relates to Pseudomonas aeruginosa KY 4276. Described as above. The format is cell-based. The following applies: KY4276, clinical isolate, Table 7.
From the text: as §2, §3

The subject of data set [18] is Pseudomonas aeruginosa KY 8512. The description is as above. In kind it is cell-based. The following applies: KY8512, clinical isolate, Table 7.
From the text: as §2, §3

Data set [19] relates to Pseudomonas aeruginosa KY 8510. The description is as above. In kind it is cell-based. The following applies: Pseudomonas aeruginosa, KY8510; agar dilution; clinical isolate; Table 7.
From the text: as §2, §3

Data set [20] can be described thus: Solubility. The format is physicochemical.
[21] abbreviates: Example 2, free base, Mm-628 ATCC 21827.
[22] abbreviates: Example 6, free base, Micromonospora purpurea ATCC 15835.
Setting [23] is: Example 7, free base, Micromonospora echinospora ATCC 15837 NRRL 2985.
Setting [24] is: Example 7, free base, Micromonospora echinospora var. ferruginea NRRL 2995.
[25] abbreviates: Example 7, free base, Micromonospora echinospora var. pallida NRRL 2996.

For `CN[C@@H]1[C@@H](O)[C@@H](O[C@@H]2[C@@H](O)[C@H](O[C@H]3O[C@H]([C@@H](C)NC)CC[C@H]3N)[C@@H](N)C[C@H]2N)OC[C@]1(C)O` [gentamicin C1, reference compound], the Activity in data set [1] (setting [21]) is on record as 880 unit/mg; in data set [1] (setting [22]), 821 unit/mg; in data set [1] (setting [23]), 906 unit/mg; in data set [1] (setting [24]), 830 unit/mg; in [1] (setting [25]), 940 unit/mg.
Turning to `CN[C@@H]1[C@@H](O)[C@@H](O[C@@H]2[C@@H](O)[C@H](O[C@H]3O[C@H]([C@@H](C)N)CC[C@H]3N)[C@@H](N)C[C@H]2N)OC[C@]1(C)O` [gentamicin C2, reference compound], the Activity in data set [1] (setting [21]) is 925 unit/mg; in data set [1] (setting [22]), 880 unit/mg; in [1] (setting [23]), 845 unit/mg; in [1] (setting [24]) it was 853 unit/mg; in data set [1] (setting [25]), 859 unit/mg.
On to `NC[C@H]1O[C@H](O[C@H]2[C@H](O)[C@@H](O[C@H]3O[C@H](CO)[C@@H](O)[C@H](N)[C@H]3O)[C@H](N)C[C@@H]2N)[C@H](O)[C@@H](O)[C@@H]1O` [kanamycin], for which the MIC in data set [2] is 0.33 µg/mL (≈ 0.681 µM); in data set [3], 0.16 µg/mL (≈ 0.33 µM); in data set [4], 0.04 µg/mL (≈ 0.0826 µM); in [5], 0.04 µg/mL (≈ 0.0826 µM); in [6] it was 0.08 µg/mL (≈ 0.165 µM); in [7] it was 0.08 µg/mL (≈ 0.165 µM). In addition, the MIC was determined as 0.16 µg/mL (≈ 0.33 µM) in data set [8]; 0.34 µg/mL (≈ 0.702 µM) in data set [9]; 104 µg/mL (≈ 215 µM) in data set [11]; 13 µg/mL (≈ 26.8 µM) in data set [12]; 416 µg/mL (≈ 859 µM) in data set [13]; 26 µg/mL (≈ 53.7 µM) in [14]. In addition, the MIC in data set [15] came out at 208 µg/mL (≈ 429 µM); in [16], 167 µg/mL (≈ 345 µM); in data set [17], 1.63 µg/mL (≈ 3.36 µM); in [18], 3.3 µg/mL (≈ 6.81 µM); in data set [19] it was 13 µg/mL (≈ 26.8 µM). In addition, the “Inactivation by acetylation (6'-NH2)” value in data set [10] is given as “inactivates”.
As to `[H]/N=C(/N)N[C@H]1[C@H](O)[C@@H](O)[C@H](O[C@@H]2O[C@@H](C)[C@](O)(C=O)[C@H]2O[C@@H]2O[C@@H](CO)[C@H](O)[C@@H](O)[C@@H]2NC)[C@@H](N/C(N)=N\[H])[C@@H]1O` [streptomycin], the MIC in [2], in [3], in data set [4], in data set [5], in data set [6] and in [7] was > 40 µg/mL in each case. For the same compound, the MIC is > 40 µg/mL in data set [8]; > 40 µg/mL in [9]; 5.2 µg/mL (≈ 8.94 µM) in [11]; > 2500 µg/mL in data set [12]; 624 µg/mL (≈ 1070 µM) in [13]; 0.65 µg/mL (≈ 1.12 µM) in data set [14]. The MIC in [15] came to 156 µg/mL (≈ 268 µM); in [16], 156 µg/mL (≈ 268 µM); in [17], 2.6 µg/mL (≈ 4.47 µM); in [18], 42 µg/mL (≈ 72.2 µM); in [19], 0.65 µg/mL (≈ 1.12 µM).
Regarding `CNC[C@@H]1CC[C@@H](N)[C@@H](O[C@H]2[C@H](O)[C@@H](O[C@H]3OC[C@](C)(O)[C@H](NC)[C@H]3O)[C@H](N)C[C@@H]2N)O1` [sulfate of XK-62-2], the Activity in data set [1] (Example 4, sulfate) turned out to be 792 unit/mg. In data set [20] (acetone), the Solubility in acetone result was “insoluble”. For the same compound, in data set [20] (methanol), the Solubility in methanol result was “poorly soluble; also recorded: insoluble”. Moreover, the Solubility in water entry in [20] (water) is recorded as “very soluble”.
